Test results: ChEMBL document CHEMBL5661943, “ASAP - In vitro antiviral effect” (2024)
Where “and” joins values, the source holds several entries; their conditions need not be identical. Equal entries are not always repeated.

How the values were obtained:
[1] = test system: dengue virus type 2; experiment: Functional assay to measure dose dependent changes in antiviral-drug inhibitory efficacy against Dengue virus type 2 New Guinea C in Vero E6 miRFP670 cells (cotreated with P-gp inhibitor, CP100356). Cells are treated with antiviral candidates that are serially diluted, following infection, cells are fixed. EC50 is reported via analysis of fluorescence intensity using high-content imager. The …; type: organism-based, Chlorocebus sabaeus, Vero C1008; conditions: Dengue virus, Vero C1008; for EC90: Baseline response 0 %, Maximum response 100 %, P-gp concentration 500 nM, P-gp inhibitor CP100356
[2] = test system: dengue virus type 2; experiment: Functional immunofluorescence assay to measure dose dependent changes in antiviral-drug inhibitory efficacy against Dengue virus type 2 Thailand/16681/84 in Vero E6/TMPRSS2 cells (cotreated with P-gp inhibitor, Elacridar). Cells are treated with antiviral candidates that are serially diluted, following infection, cells are fixed. EC50 is reported via analysis of immunofluorescence staining. The assay has been performed by Icahn School of Medicine at Mount Sinai.; type: organism-based, Chlorocebus sabaeus, VeroE6/TMPRSS2
[3] = test system: Zika virus; experiment: EC50 is reported via analysis of immunofluorescence staining. The assay has been performed by Icahn School of Medicine at Mount Sinai.; type: functional, organism-based, Chlorocebus sabaeus, VeroE6/TMPRSS2; conditions: for EC90: P-gp concentration 2 uM, P-gp inhibitor Elacidar

`NCc1cccc(NC(=O)c2cc(Cl)cc(-n3cccc3)c2)c1` gave an EC50 [1] of 14.4 µM, an EC90 ([1]; EC90 CI (lower) 7.414 uM, EC90 CI (upper) 19.74 uM, Hill slope -12.44, Maximum measured 108.218 %, Minimum measured 0.325 %, R squared 0.952) of 17.2 µM and an EC50 ([2]; Dengue virus, VeroE6/TMPRSS2) of 13.9 µM. The EC90 ([2]; Dengue virus, VeroE6/TMPRSS2, Baseline response 0 %, Hill slope -2.713, Maximum measured 77.83 %, Maximum response 65.791 %, Minimum measured 24.724 %, P-gp concentration 2 uM, R squared 0.597, P-gp inhibitor Elacidar) was > 16.7 µM, the EC50 ([3]; Zika virus, VeroE6/TMPRSS2) was > 5.56 µM and the EC90 ([3]; Zika virus, VeroE6/TMPRSS2, Maximum measured 124.363 %, Minimum measured 74.851 %) was > 5.56 µM.

Compound `O=C(Nc1cc(Cl)cc([C@H]2CN(Cc3ccccc3)C[C@@H]2c2cccc(-c3nn[nH]n3)c2)c1)OCc1ccccc1` has an EC50 [1] of 7.89 µM, an EC90 ([1]; EC90 CI (lower) 5.235 uM, EC90 CI (upper) 7.261 uM, Hill slope -8.911, Maximum measured 94.205 %, Minimum measured 1.534 %, R squared 0.94) of 10.1 µM and an EC50 ([2]; Dengue virus, VeroE6/TMPRSS2) of 3.42 µM. For the same compound, the EC90 ([2]; Dengue virus, VeroE6/TMPRSS2) was 5.71 µM, the EC50 ([3]; Zika virus, VeroE6/TMPRSS2) was 7.98 µM and the EC90 ([3]; Zika virus, VeroE6/TMPRSS2, Baseline response 15.017 %, Hill slope -78.318, Maximum measured 79.355 %, Maximum response 65.758 %, Minimum measured 8.182 %, R squared 0.629) was 8.21 µM.

With `NCc1cccc(NC(=O)c2cc(Cl)cc(NC(=O)OCc3ccccc3)c2)c1` the EC90 ([2]; Baseline response 0 %, Hill slope 0.299, Maximum measured 124.416 %, Maximum response 100 %, Minimum measured 54.583 %, P-gp concentration 2 uM, R squared 0.188, P-gp inhibitor Elacidar) was > 10 µM, the EC90 ([2]; Baseline response 0 %, Hill slope -0.071, Maximum measured 76.87 %, Maximum response 100 %, Minimum measured 49.245 %, P-gp concentration 2 uM, R squared 0.036, P-gp inhibitor Elacidar) was > 1.85 µM and the EC90 ([2]; Baseline response 0 %, Hill slope -0.258, Maximum measured 121.337 %, Maximum response 100 %, Minimum measured 68.392 %, P-gp concentration 2 uM, R squared 0.156, P-gp inhibitor Elacidar) was > 5.56 µM. The EC50 ([2]; veroe6/tmprss2) was > 10 µM, the EC90 ([3]; Baseline response 0 %, Hill slope -0.215, Maximum measured 128.419 %, Maximum response 100 %, Minimum measured 50.213 %, R squared 0.105) was > 3.33 µM and the EC90 ([3]; Baseline response 0 %, Hill slope -0.764, Maximum measured 71.895 %, Maximum response 50 %, Minimum measured 1.714 %, R squared 0.465) was > 16.7 µM. The EC90 ([3]; Baseline response 0 %, Hill slope -1.05, Maximum measured 125.373 %, Maximum response 100 %, Minimum measured 37.992 %, R squared 0.488) was > 5.56 µM and the EC50 ([3]; veroe6/tmprss2) was > 3.33 µM and 2.02 µM and 1.2 µM.

For `O=C(NCC1CCOCC1)[C@H](Nc1ccc2c(c1)CNC2)c1cc(Cl)cc2[nH]ncc12`, the EC50 ([2]; Dengue virus, VeroE6/TMPRSS2) was > 16.7 µM, the EC90 ([2]; Dengue virus, VeroE6/TMPRSS2, Maximum measured 245.258 %, Minimum measured 99.219 %, P-gp concentration 2 uM, P-gp inhibitor Elacidar) was > 16.7 µM and the EC50 ([3]; Zika virus, VeroE6/TMPRSS2) was > 16.7 µM. For the same compound, the EC90 ([3]; Zika virus, VeroE6/TMPRSS2, Maximum measured 73.647 %, Minimum measured 25.821 %) was > 16.7 µM.

For `NCc1cccc([C@@H]2C[C@H]2c2cc(Cl)cc(NC(=O)OCc3ccccc3)c2)c1`, the EC50 ([2]; Dengue virus, VeroE6/TMPRSS2) was > 5.56 µM, the EC90 ([2]; Dengue virus, VeroE6/TMPRSS2, Maximum measured 134.824 %, Minimum measured 97.991 %, P-gp concentration 2 uM, P-gp inhibitor Elacidar) was > 5.56 µM and the EC50 ([3]; Zika virus, VeroE6/TMPRSS2) was > 5.56 µM. The EC90 ([3]; Zika virus, VeroE6/TMPRSS2, Maximum measured 125.497 %, Minimum measured 83.326 %) was > 5.56 µM.

`C[C@@H](N)c1cccc(NC(=O)[C@H]2[C@H]3CCCCC[C@H]3[C@H]2NC(=O)OCc2ccccc2)c1` was tested, and the EC50 ([2]; Dengue virus, VeroE6/TMPRSS2) was > 5.56 µM, the EC90 ([2]; Dengue virus, VeroE6/TMPRSS2, Baseline response 0 %, Hill slope -0.267, Maximum measured 104.495 %, Maximum response 100 %, Minimum measured 46.505 %, P-gp concentration 2 uM, R squared 0.299, P-gp inhibitor Elacidar) was > 5.56 µM and the EC50 ([3]; Zika virus, VeroE6/TMPRSS2) was > 5.56 µM. For the same compound, the EC90 ([3]; Zika virus, VeroE6/TMPRSS2, Maximum measured 138.527 %, Minimum measured 84.272 %) was > 5.56 µM.

With `O=C(Nc1cc(Cl)cc(C(=O)Nc2cc(-c3nnn[nH]3)ccc2F)c1)OCc1ccccc1` the EC50 ([2]; Dengue virus, VeroE6/TMPRSS2) was > 50 µM, the EC90 ([2]; Dengue virus, VeroE6/TMPRSS2, Baseline response 0 %, Hill slope -0.699, Maximum measured 181.18 %, Maximum response 100 %, Minimum measured 75.606 %, P-gp concentration 2 uM, R squared 0.051, P-gp inhibitor Elacidar) was > 50 µM and the EC50 ([3]; Zika virus, VeroE6/TMPRSS2) was > 16.7 µM. For the same compound, the EC90 ([3]; Zika virus, VeroE6/TMPRSS2, Maximum measured 136.099 %, Minimum measured 71.047 %) was > 16.7 µM.

With `O=C(Nc1ccc2c(c1)CNC2)c1cc(Br)cc2[nH]c(Cc3ccccc3)nc12` the EC50 [1] was 2.23 µM, the EC90 ([1]; Hill slope -0.825, Maximum measured 88.647 %, Minimum measured 23.774 %, R squared 0.436) was > 6.25 µM and the EC50 ([2]; Dengue virus, VeroE6/TMPRSS2) was > 16.7 µM. For the same compound, the EC90 ([2]; Dengue virus, VeroE6/TMPRSS2, Maximum measured 134.005 %, Minimum measured 55.42 %, P-gp concentration 2 uM, P-gp inhibitor Elacidar) was > 16.7 µM, the EC50 ([3]; Zika virus, VeroE6/TMPRSS2) was > 1.85 µM and the EC90 ([3]; Zika virus, VeroE6/TMPRSS2, Maximum measured 133.577 %, Minimum measured 80.808 %) was > 1.85 µM.
